Reference: ChEMBL document CHEMBL1201862, “PubChem BioAssay data set” (2004)
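Values below derive from 48-hour exposures of cells grown in 96-well plates, with endpoints linearly interpolated between the two concentrations bracketing the appropriate inhibition level. Here, GI50 denotes the concentration required for 50% inhibition of growth.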 Calls of active or inactive are those of the source. Cut-off read from the data, not from the text of the source: active = GI50 up to about 1.1 µM and inactive = higher.

How the values were obtained:
Test in all cases: growth of human tumour cells (NCI), 48 h
DLD-1 = test system: DLD-1
XF498 = test system: XF498
LXFL 529 = test system: LXFL 529
KM-20L2 = test system: KM-20L2
M19-MEL = test system: M19-MEL
HOP-18 = test system: HOP-18
RXF 631 = test system: RXF 631
DMS-273 = test system: DMS-273
SNB-78 = test system: SNB-78

| SMILES | GI50 (DLD-1) | GI50 (XF498) | GI50 (LXFL 529) | GI50 (KM-20L2) | GI50 (M19-MEL) | GI50 (HOP-18) | GI50 (RXF 631) | GI50 (DMS-273) | GI50 (SNB-78) |
| --- | --- | --- | --- | --- | --- | --- | --- | --- | --- |
| COC(=O)C(=O)C(C(=O)C(=O)Nc1cc([N+](=O)[O-])ccc1C#N)c1nc2ccccc2nc1O (stereo not drawn) | > 100 µM (inactive) | > 100 µM (inactive) | > 100 µM (inactive) | > 100 µM (inactive) | > 100 µM (inactive) | > 100 µM (inactive) | > 100 µM (inactive) | > 100 µM (inactive) |  |
| NC(=S)N/N=C1\C(=O)N(CCc2ccccc2)C(=O)C1C(=O)NCCc1ccccc1 (stereo not drawn) |  |  | > 100 µM (inactive) | > 100 µM (inactive) | > 100 µM (inactive) | > 100 µM (inactive) |  | > 100 µM (inactive) | > 100 µM (inactive) |
| COC(=O)c1c(N)n[nH]c1N | > 100 µM (inactive) | > 100 µM (inactive) |  | > 100 µM (inactive) | > 100 µM (inactive) |  | > 100 µM (inactive) | > 100 µM (inactive) | > 100 µM (inactive) |
| CC[C@@]1(OP(=O)(O)O)C(=O)OCc2c1cc1n(c2=O)Cc2cc3ccccc3nc2-1 | 1.11 µM (active) | 0.221 µM (active) | 1.73 µM (inactive) | 1 µM (active) | 1.01 µM (active) | 1.08 µM (active) |  | 0.0513 µM (active) | 4.63 µM (inactive) |
| Cc1ccc(/C=C2\CCCCC2=O)cc1 | 49.2 µM (inactive) | > 100 µM (inactive) | 94.6 µM (inactive) | > 100 µM (inactive) | > 100 µM (inactive) | 24 µM (inactive) | > 100 µM (inactive) | 40.1 µM (inactive) | 73.6 µM (inactive) |
| CC(CCc1ccc2c(c1)c(N)c1ccc(N)cc1[n+]2[O-])CC(C)(C)C (stereo not drawn) | 1.82 µM (inactive) | 1.16 µM (inactive) | 1.53 µM (inactive) | 1.37 µM (inactive) | 1.44 µM (inactive) | 1.93 µM (inactive) | 1.65 µM (inactive) | 2.21 µM (inactive) | 2.05 µM (inactive) |
| O=c1cc(CO)oc2c3c(cc(O)c12)OCC(COC1OC(CO)C(O)C(O)C1O)=CC3 (stereo not drawn) | > 100 µM (inactive) |  | > 100 µM (inactive) | > 100 µM (inactive) | > 100 µM (inactive) | > 100 µM (inactive) |  | > 100 µM (inactive) | > 100 µM (inactive) |
| CN(CC1NCCCC1O)C12CC3CC(CC(C3)C1)C2 (stereo not drawn) | > 100 µM (inactive) | > 100 µM (inactive) | > 100 µM (inactive) | > 100 µM (inactive) | > 100 µM (inactive) | > 100 µM (inactive) |  | > 100 µM (inactive) |  |
| CC1=C(C(=O)Nc2ccccc2)C(c2ccc(C(C)C)cc2)C(C(=O)Nc2ccccc2)=C(C)N1 | 17.5 µM (inactive) | 13.1 µM (inactive) | 16.7 µM (inactive) | 15.2 µM (inactive) | 15.6 µM (inactive) | 19.1 µM (inactive) | 18.2 µM (inactive) |  | 31.5 µM (inactive) |
| Clc1ccc(C(n2cc(Br)cn2)n2cc(Br)cn2)cc1 |  |  | 14.9 µM (inactive) |  | 16.9 µM (inactive) | 18.1 µM (inactive) |  | 18.8 µM (inactive) | 19.7 µM (inactive) |
| Cc1cc2c(cc1C)[n+]([O-])c(C(=O)/C=C/c1ccc3c(c1)OCO3)c(C)[n+]2[O-] | > 100 µM (inactive) | 27 µM (inactive) |  | > 100 µM (inactive) | > 100 µM (inactive) | > 100 µM (inactive) | 10.1 µM (inactive) | 27 µM (inactive) | 60.3 µM (inactive) |
| CCc1ccccc1NC(=O)CC1NC(=O)CS1 (stereo not drawn) | > 100 µM (inactive) | > 100 µM (inactive) | > 100 µM (inactive) | > 100 µM (inactive) | > 100 µM (inactive) | > 100 µM (inactive) | > 100 µM (inactive) | > 100 µM (inactive) | > 100 µM (inactive) |
| CCCOP1(=O)C=C(C)C(Cl)=C(C)C1 (stereo not drawn) | 22.8 µM (inactive) | 16.5 µM (inactive) | 20.7 µM (inactive) | 29.3 µM (inactive) | 21 µM (inactive) | 29.4 µM (inactive) | 37.1 µM (inactive) | 14.6 µM (inactive) |  |
| COc1cc2c(cc1O)C1C(O)C(O)C=C3CCN(C2)C31 (stereo not drawn) | 2.47 µM (inactive) | 1.36 µM (inactive) | 3.18 µM (inactive) | 2.34 µM (inactive) | 2.72 µM (inactive) | 2.43 µM (inactive) | 2.97 µM (inactive) | 1.95 µM (inactive) | 0.565 µM (active) |
| Cc1cc(Cl)ccc1NC(=O)C1C(=O)N(c2ccc(Cl)cc2C)C(=O)/C1=N\N (stereo not drawn) |  | 65 µM (inactive) | 44 µM (inactive) | 36 µM (inactive) | 43.2 µM (inactive) | 40.6 µM (inactive) |  |  | 74.8 µM (inactive) |
| Cc1c2n(c(=O)[nH]c1=O)C1OC(CO)C(N=[N+]=[N-])C1O2 (stereo not drawn) | > 100 µM (inactive) |  | > 100 µM (inactive) | > 100 µM (inactive) | > 100 µM (inactive) |  |  | > 100 µM (inactive) | > 100 µM (inactive) |
| OCCNCCOc1ccc(/C(=C(/Cl)c2ccccc2)c2ccccc2)cc1 | 12.1 µM (inactive) | 2.9 µM (inactive) | 6.92 µM (inactive) | 2.47 µM (inactive) | 10.9 µM (inactive) | 19.3 µM (inactive) |  |  | 8.51 µM (inactive) |
| C[C@]12CC[C@H](O)CC1CCC[C@@H]2O (stereo partly drawn) | > 100 µM (inactive) | > 100 µM (inactive) | > 100 µM (inactive) |  |  |  | > 100 µM (inactive) | > 100 µM (inactive) | > 100 µM (inactive) |
| CC(C)N(CCn1c2c3ccccc3ccc2c2oc(=O)c3ccccc3c21)C(C)C | > 100 µM (inactive) | 75.7 µM (inactive) | > 100 µM (inactive) | > 100 µM (inactive) | > 100 µM (inactive) | 32.7 µM (inactive) | > 100 µM (inactive) |  | 98.9 µM (inactive) |
| CCO/C=C1\N=C(c2ccc(Cl)c(Cl)c2)OC1=O | > 100 µM (inactive) | > 100 µM (inactive) | > 100 µM (inactive) | > 100 µM (inactive) | > 100 µM (inactive) |  |  | > 100 µM (inactive) | > 100 µM (inactive) |
| O=c1c2ccccc2c2nc3ccccc3nc2n1C1CCCCC1 |  |  | > 100 µM (inactive) | > 100 µM (inactive) | > 100 µM (inactive) |  |  | > 100 µM (inactive) | > 100 µM (inactive) |
| CCOC(=O)CN(c1ccccc1)c1nc(=[N+](C)C)ss1 | 6.93 µM (inactive) |  |  | 54.7 µM (inactive) | 0.303 µM (active) | 53 µM (inactive) |  | 0.318 µM (active) | 32.4 µM (inactive) |
| CCC1(OC(=O)CN2CCN(CCO)CC2)C(=O)OCc2c1cc1n(c2=O)Cc2cc3ccccc3nc2-1 (stereo not drawn) | 6.62 µM (inactive) | 2.16 µM (inactive) | 6.05 µM (inactive) | 1.22 µM (inactive) | 0.789 µM (active) | 0.76 µM (active) |  | 0.0652 µM (active) | 5.25 µM (inactive) |
| NC(=O)c1cccc([C@@H]2O[C@H](CO)[C@@H](O)[C@H]2O)c1 | 5.46 µM (inactive) | 2.05 µM (inactive) |  | 7.36 µM (inactive) | 21 µM (inactive) | 26.1 µM (inactive) | 12 µM (inactive) | 7.66 µM (inactive) | 7.43 µM (inactive) |
| c1ccc(C(c2ccccc2)c2ccccn2)cc1 | > 100 µM (inactive) | > 100 µM (inactive) |  | > 100 µM (inactive) | > 100 µM (inactive) | > 100 µM (inactive) | > 100 µM (inactive) | > 100 µM (inactive) | > 100 µM (inactive) |
| c1ccc2c(c1)[nH]c1c[nH]c3c4cccnc4nc-3c12 | 15.6 µM (inactive) |  | 18.5 µM (inactive) |  | 16.9 µM (inactive) | 18.6 µM (inactive) |  |  | 23.4 µM (inactive) |
